Consider one compound from US10517853B2, “Methods for treating epilepsy” (PTC Therapeutics, Inc., priority 2015, dated 2019).

The test system of series [1] is SCN1A nonsense mutation W192X (UAG premature stop). The series can be described thus: Luciferase reporter readthrough assay, SCN1A nonsense mutation W192X construct in 293H cells. The series is classed as cell-based. Particulars: 293H cells transfected with construct SCN1A-Trp192x; decreasing concentrations starting at 3 uM; 24 hours; FIG. 4. The text has this:
(§1) Luciferase reporter constructs were generated to evaluate readthrough activity of compounds at premature stop codons present in SCN1A and CDKL5 mRNA sequences. FIG. 1 is a schematic of the reporter construct used to monitor readthrough activity of SCN1A nonsense mutation W192X (UAG premature stop). FIG. 2 is a schematic of the reporter construct used to monitor readthrough activity of CDKL5 nonsense mutation R59X (UGA premature stop). FIG. 3 is a schematic of the reporter construct used to monitor readthrough activity of CDKL5 nonsense mutation R550X (UGA premature stop). In each of the constructs, luciferase reporter is flanked by a 3XHA epitope tag at the amino-terminus and a FLAG epitope tag at the C-terminus. An intron from the TPI gene was inserted in the luciferase gene. Sequences from SCN1A (see FIG. 1) and CDKL5 (see FIGS. 2 and 3) harboring disease-associated nonsense mutations were introduced in-frame with the reporter sequence such that readthrough at the premature stop codon results in the production of a functional luciferase protein.
(§2) 293H cells were transfected with either construct SCN1A-Trp192x (FIG. 1), construct CDKL5-R59X (FIG. 2), or construct CDKL5-R550X (FIG. 3). […] The ability of ataluren to promote readthrough at the premature stop codon in each of the constructs was measured and reported as the relative light units (y-axis). […]
On the technique in general: A reporter such as luciferase makes a cellular process visible.

Series [2] has as its system CDKL5 nonsense mutation R59X (UGA premature stop). The series is described as follows: Luciferase reporter readthrough assay, CDKL5 nonsense mutation R59X construct in 293H cells. The settings on record: 293H cells transfected with construct CDKL5-R59X; decreasing concentrations starting at 3 uM; 24 hours; FIG. 5. It is filed as cell-based.
Text: as §1, §2

The test system of series [3] is CDKL5 nonsense mutation R550X (UGA premature stop). The series is described as follows: Luciferase reporter readthrough assay, CDKL5 nonsense mutation R550X construct in 293H cells. The series is classed as cell-based. The settings on record: 293H cells transfected with construct CDKL5-R550X; decreasing concentrations starting at 3 uM; 24 hours; FIG. 5.
Text: as §1, §2

For a further series, the target named is CYP2C9 (Homo sapiens, UniProt P11712). The series can be described thus: CYP2C9 inhibition. The series is classed as in vitro ADME.
Chain of CYP2C9 (P11712 whole entry): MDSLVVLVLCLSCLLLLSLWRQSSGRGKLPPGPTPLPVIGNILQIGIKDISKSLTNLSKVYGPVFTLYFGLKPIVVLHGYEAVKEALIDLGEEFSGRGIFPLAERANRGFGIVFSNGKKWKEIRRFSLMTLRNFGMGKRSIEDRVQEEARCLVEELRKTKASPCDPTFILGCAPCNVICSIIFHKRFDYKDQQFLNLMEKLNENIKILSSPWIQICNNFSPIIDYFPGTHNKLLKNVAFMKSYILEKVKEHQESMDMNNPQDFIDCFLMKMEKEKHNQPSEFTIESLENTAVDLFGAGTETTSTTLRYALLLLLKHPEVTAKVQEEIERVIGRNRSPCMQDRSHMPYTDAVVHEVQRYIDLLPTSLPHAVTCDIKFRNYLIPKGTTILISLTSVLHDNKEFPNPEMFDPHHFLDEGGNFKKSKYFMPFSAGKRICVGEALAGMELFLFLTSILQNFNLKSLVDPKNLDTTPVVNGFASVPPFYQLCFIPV
The target of another series is T1, CYP2C8 (Homo sapiens, UniProt P10632).
T1 sequence (P10632 1-490): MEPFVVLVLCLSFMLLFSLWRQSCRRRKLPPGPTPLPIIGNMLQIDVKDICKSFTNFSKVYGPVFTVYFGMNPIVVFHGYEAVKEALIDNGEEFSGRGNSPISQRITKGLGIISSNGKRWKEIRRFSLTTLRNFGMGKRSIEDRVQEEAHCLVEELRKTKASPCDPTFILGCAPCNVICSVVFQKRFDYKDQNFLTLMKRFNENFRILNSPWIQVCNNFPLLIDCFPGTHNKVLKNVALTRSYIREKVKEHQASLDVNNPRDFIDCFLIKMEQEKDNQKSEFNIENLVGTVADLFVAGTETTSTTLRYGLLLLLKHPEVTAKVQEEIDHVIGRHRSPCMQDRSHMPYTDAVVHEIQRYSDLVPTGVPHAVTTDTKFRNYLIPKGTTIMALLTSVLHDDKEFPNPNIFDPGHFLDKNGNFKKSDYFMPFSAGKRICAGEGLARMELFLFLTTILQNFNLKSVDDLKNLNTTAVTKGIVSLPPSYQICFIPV
The series can be described thus: CYP2C8 inhibition. The series is classed as in vitro ADME.

Turning to `O=C(O)c1cccc(-c2noc(-c3ccccc3F)n2)c1` [ataluren, 3-[5-(2-fluoro-phenyl)-[1,2,4]oxadiazol-3-yl]-benzoic acid], the “readthrough at the premature stop codon (luciferase, relative light units; fold increase compared to DMSO)” value in series [1], in series [2] and in series [3] was “promotes concentration-dependent readthrough” each time. In addition, the “inhibition of CYP2C9” value against CYP2C9 is “weak inhibitor”. The “inhibition of CYP2C8” value on CYP2C8 was “weak inhibitor”.
